Reference: the supplement of paper PMC10307832

What was measured:
Assay in all cases: relative viability (nuclei count vs DMSO), 5 days (fraction); higher = more cells survive
[1] = compound: Cn1cncc1[C@@](N)(c1ccc(Cl)cc1)c1ccc2c(c1)c(-c1cccc(Cl)c1)cc(=O)n2C [Tipifarnib] + COc1cc2c(Oc3ccc(NC(=O)C4(C(=O)Nc5ccc(F)cc5)CC4)cc3F)ccnc2cc1OCCCN1CCOCC1 [Foretinib] (partner 0.25 µM)
In short: (§1)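 Relative viability was taken as the ratio of nuclei in treated wells to nuclei in vehicle wells. Lung cancer cell lines in 1536-well plates received compounds by pin tool one day after seeding, either one drug alone or a fixed anchor-drug dose plus five library-drug doses (not always all listed) in √10 steps. Nuclei were counted on 4× images after 5 days of treatment, and values are medians of duplicate plates.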

[2] = compound: Cn1cncc1[C@@](N)(c1ccc(Cl)cc1)c1ccc2c(c1)c(-c1cccc(Cl)c1)cc(=O)n2C [Tipifarnib] + Cc1cc(Nc2cc(N3CCN(C)CC3)nc(Sc3ccc(NC(=O)C4CC4)cc3)n2)n[nH]1 [Tozasertib] (partner 0.1 µM)
In short: as §1

[3] = compound: Cn1cncc1[C@@](N)(c1ccc(Cl)cc1)c1ccc2c(c1)c(-c1cccc(Cl)c1)cc(=O)n2C [Tipifarnib] + CCNC(=O)c1noc(-c2cc(C(C)C)c(O)cc2O)c1-c1ccc(CN2CCOCC2)cc1 [Luminespib] (partner 0.01 µM)
In short: as §1

[4] = compound: Cn1cncc1[C@@](N)(c1ccc(Cl)cc1)c1ccc2c(c1)c(-c1cccc(Cl)c1)cc(=O)n2C [Tipifarnib] + NC(=O)Nc1cc(-c2cccc(F)c2)sc1C(=O)N[C@H]1CCCNC1 [AZD7762] (partner 0.2 µM)
In short: as §1

Cell Line | relative viability ([1]; first compound 0.01 µM) | relative viability ([1]; first compound 0.03162 µM) | relative viability ([1]; first compound 0.1 µM) | relative viability ([1]; first compound 0.3162 µM) | relative viability ([1]; first compound 1 µM) | relative viability ([2]; first compound 0.01 µM) | relative viability ([2]; first compound 0.03162 µM) | relative viability ([2]; first compound 0.1 µM) | relative viability ([2]; first compound 0.3162 µM) | relative viability ([2]; first compound 1 µM) | relative viability ([3]; first compound 0.01 µM) | relative viability ([3]; first compound 0.03162 µM) | relative viability ([3]; first compound 0.1 µM) | relative viability ([3]; first compound 0.3162 µM) | relative viability ([3]; first compound 1 µM) | relative viability ([4]; first compound 0.01 µM) | relative viability ([4]; first compound 0.03162 µM) | relative viability ([4]; first compound 0.1 µM) | relative viability ([4]; first compound 0.3162 µM) | relative viability ([4]; first compound 1 µM)
201T | 1.13 | 1.09 | 1.02 | 0.839 | 0.875 | 1.02 | 0.945 | 0.864 | 0.705 | 0.767 | 1.05 | 1.06 | 0.991 | 0.972 | 0.938 | 0.679 | 0.628 | 0.573 | 0.546 | 0.449
A-427 | 1.19 | 1.06 | 1.06 | 0.873 | 0.927 | 0.164 | 0.205 | 0.227 | 0.171 | 0.211 | 0.828 | 0.877 | 0.849 | 0.691 | 0.548 | 0.837 | 0.79 | 0.553 | 0.599 | 0.601
ABC-1 | 1.28 | – | 0.965 | 0.762 | 0.843 | 0.21 | – | 0.191 | 0.154 | 0.238 | 0.914 | – | 0.321 | 0.347 | 0.278 | 1.04 | – | – | 0.558 | 0.54
BEN | 0.609 | 0.686 | 0.529 | 0.484 | 0.379 | 0.576 | 0.398 | 0.491 | 0.418 | 0.504 | 0.324 | 0.459 | 0.226 | 0.17 | 0.351 | 0.738 | 0.659 | 0.629 | 0.663 | 0.528
CAL-12T | 1.09 | 0.885 | 0.727 | 0.469 | 0.536 | 0.277 | 0.278 | 0.241 | 0.188 | 0.246 | 0.284 | 0.335 | 0.267 | 0.151 | 0.15 | 0.635 | 0.549 | 0.62 | 0.408 | 0.425
ChaGo-K-1 | 1.06 | 0.873 | 0.848 | 0.852 | 0.665 | 0.226 | 0.22 | 0.213 | 0.198 | 0.175 | 0.669 | 0.558 | 0.454 | 0.505 | 0.389 | 0.904 | 0.936 | 0.931 | 0.745 | 0.411
EKVX | 0.818 | 0.767 | 0.811 | 0.705 | 0.324 | 0.447 | 0.331 | 0.397 | 0.348 | 0.297 | 0.95 | 0.856 | 0.41 | 0.776 | 0.496 | 0.795 | 0.756 | 0.607 | 0.537 | 0.337
EMC-BAC-2 | 1.06 | 0.921 | 1 | 0.9 | 0.82 | 0.3 | 0.281 | 0.272 | 0.262 | 0.271 | 1.27 | 0.907 | 0.974 | 0.847 | 0.752 | 0.981 | 0.952 | 0.944 | 0.822 | 0.536
EPLC-272H | 0.68 | 0.631 | 0.569 | 0.443 | 0.257 | 0.366 | 0.266 | 0.224 | 0.249 | 0.243 | 0.196 | 0.267 | 0.233 | 0.378 | 0.173 | 0.313 | 0.263 | 0.245 | 0.292 | 0.118
H3255 | 0.921 | 0.977 | 0.805 | 0.636 | 0.508 | 0.72 | 0.674 | 0.528 | 0.476 | 0.389 | 1.13 | 0.873 | 0.846 | 0.654 | 0.53 | 1.04 | 0.918 | 0.736 | 0.559 | 0.514
HARA | 1.1 | 0.828 | 0.96 | 0.951 | 0.269 | 0.123 | 0.0922 | 0.102 | 0.0898 | 0.0758 | 0.694 | 0.682 | 0.526 | 0.522 | 0.221 | 0.239 | 0.426 | 0.283 | 0.297 | 0.166
HCC-15 | 0.967 | 0.917 | 0.785 | 0.635 | 0.595 | 0.242 | 0.227 | 0.227 | 0.153 | 0.174 | 0.332 | 0.306 | 0.245 | 0.302 | 0.357 | 1.12 | 0.998 | 0.758 | 0.799 | 0.236
HCC-827 | 1.06 | 1.05 | 0.741 | 0.63 | 0.568 | 0.41 | 0.409 | 0.335 | 0.26 | 0.334 | 1.06 | 0.471 | 0.279 | 0.365 | 0.256 | 0.236 | 0.287 | 0.206 | 0.207 | 0.178
HOP-62 | 0.809 | 0.671 | 0.464 | 0.305 | 0.542 | 0.297 | 0.292 | 0.312 | 0.2 | 0.244 | 0.653 | 0.611 | 0.401 | 0.374 | 0.349 | 0.573 | 0.169 | 0.196 | 0.152 | 0.261
NCI-H522 | – | – | – | – | – | 0.517 | 0.564 | 0.525 | 0.542 | 0.566 | 0.831 | 1.33 | 1.18 | 1.08 | 1.27 | 0.925 | 1.03 | 0.875 | 0.754 | 0.662
